Assay results from ChEMBL document CHEMBL1201862, “PubChem BioAssay data set” (2004).
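Results reflect a 48-hour exposure of cells in 96-well plates to compound at five concentrations. Here, GI50 denotes the concentration required for 50% inhibition of growth.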 Active and inactive are the calls of the source. No stated cut-off is given here; in the data, active = GI50 up to about 1.1 µM and inactive = higher.

Assays:
Assay in all cases: NCI anticancer screen, dose series, 48 h
MDA-MB-435 = system: MDA-MB-435
MCF7 = system: MCF7
SK-MEL-2 = system: SK-MEL-2
BT-549 = system: BT-549
RXF 393 = system: RXF 393
HL-60 = system: HL-60
UACC-257 = system: UACC-257
U-251 = system: U-251
NCI-H522 = system: NCI-H522
SK-OV-3 = system: SK-OV-3
NCI-H460 = system: NCI-H460
TK-10 = system: TK-10
SF-268 = system: SF-268
ACHN = system: ACHN
RPMI-8226 = system: RPMI-8226
A549 = system: A549
OVCAR-5 = system: OVCAR-5
SK-MEL-5 = system: SK-MEL-5
CAKI-1 = system: CAKI-1

Measured: GI50

O=C(O)CN(CC(=O)O)c1ccccc1
inactive: MDA-MB-435 70.6 µM | MCF7 > 100 µM | SK-MEL-2 33.2 µM | BT-549 > 100 µM | RXF 393 > 100 µM | HL-60 44.5 µM | UACC-257 18.2 µM | U-251 74.5 µM | NCI-H522 26.9 µM | SK-OV-3 > 100 µM | NCI-H460 71.1 µM | TK-10 > 100 µM | SF-268 > 100 µM | ACHN > 100 µM | RPMI-8226 35.6 µM | A549 > 100 µM | OVCAR-5 > 100 µM | SK-MEL-5 84.5 µM | CAKI-1 > 100 µM

COc1ccccc1NC(=S)Nc1cc(C)ccn1
inactive: MDA-MB-435 > 100 µM | MCF7 > 100 µM | SK-MEL-2 > 100 µM | BT-549 > 100 µM | RXF 393 96.6 µM | HL-60 > 100 µM | UACC-257 > 100 µM | U-251 > 100 µM | NCI-H522 > 100 µM | SK-OV-3 > 100 µM | NCI-H460 > 100 µM | TK-10 > 100 µM | SF-268 91 µM | RPMI-8226 > 100 µM | A549 > 100 µM | OVCAR-5 > 100 µM | SK-MEL-5 > 100 µM | CAKI-1 > 100 µM

CCOC(=O)C(NC(=O)CC)(Nc1ccc(S(=O)(=O)Nc2nc(C)cc(C)n2)cc1)C(F)(F)F (stereo not given)
inactive: MDA-MB-435 > 100 µM | MCF7 36.6 µM | SK-MEL-2 > 100 µM | BT-549 > 100 µM | RXF 393 > 100 µM | HL-60 > 100 µM | UACC-257 > 100 µM | U-251 > 100 µM | NCI-H522 31.6 µM | SK-OV-3 > 100 µM | NCI-H460 > 100 µM | TK-10 > 100 µM | SF-268 > 100 µM | ACHN > 100 µM | RPMI-8226 > 100 µM | A549 > 100 µM | OVCAR-5 > 100 µM | SK-MEL-5 > 100 µM | CAKI-1 > 100 µM

CC1=NN(C(=O)CC(=O)Nc2ccccc2)C(=O)C1/N=N/c1ccc(C(=O)O)cc1 (stereo not given)
inactive: MDA-MB-435 > 100 µM | MCF7 > 100 µM | SK-MEL-2 > 100 µM | BT-549 > 100 µM | RXF 393 > 100 µM | HL-60 > 100 µM | UACC-257 > 100 µM | U-251 97.3 µM | NCI-H522 > 100 µM | NCI-H460 > 100 µM | TK-10 > 100 µM | SF-268 77.8 µM | ACHN > 100 µM | RPMI-8226 > 100 µM | A549 > 100 µM | OVCAR-5 > 100 µM | SK-MEL-5 > 100 µM | CAKI-1 > 100 µM

N=c1oc2c(Br)cc(Br)cc2cc1C(=O)Nc1ccccn1
inactive: MDA-MB-435 62.1 µM | MCF7 39.9 µM | SK-MEL-2 30.1 µM | BT-549 > 100 µM | RXF 393 75.3 µM | HL-60 57.5 µM | UACC-257 > 100 µM | U-251 96.6 µM | NCI-H522 47.2 µM | SK-OV-3 > 100 µM | NCI-H460 71.9 µM | SF-268 78.9 µM | ACHN 70.5 µM | RPMI-8226 87.1 µM | A549 65.3 µM | OVCAR-5 > 100 µM | SK-MEL-5 63.1 µM | CAKI-1 > 100 µM

CC(=O)C(C(=O)c1ccc(C)cc1)[C@@H]1OC(C)(C)O[C@@H]1[C@H]1COC(C)(C)O1 (stereo not given in full)
inactive: MDA-MB-435 9.75 µM | MCF7 3.48 µM | SK-MEL-2 8.99 µM | BT-549 15 µM | RXF 393 9.62 µM | HL-60 1.67 µM | UACC-257 12.4 µM | U-251 6.41 µM | NCI-H522 4.89 µM | SK-OV-3 51.2 µM | NCI-H460 25.1 µM | TK-10 30.3 µM | SF-268 9.23 µM | ACHN 9.59 µM | RPMI-8226 2.36 µM | A549 19.6 µM | OVCAR-5 40.9 µM | SK-MEL-5 12.1 µM | CAKI-1 21.5 µM

C=CC1(CC[C@]2(c3ccc(OC)c(OC)c3)C=[N+]([O-])O[C@H](O[C@@H]3CCCC[C@H]3C(C)(C)c3ccccc3)C2)OCC(C)(C)CO1
inactive: MDA-MB-435 11.5 µM | MCF7 3.65 µM | SK-MEL-2 12.6 µM | BT-549 21 µM | RXF 393 12.4 µM | HL-60 1.97 µM | UACC-257 18.8 µM | U-251 20 µM | NCI-H522 3.11 µM | SK-OV-3 > 44.1 µM | NCI-H460 16.5 µM | TK-10 25.4 µM | SF-268 7.13 µM | ACHN 16 µM | RPMI-8226 2.34 µM | A549 14.6 µM | OVCAR-5 16.4 µM | SK-MEL-5 14.7 µM | CAKI-1 6.95 µM

CCOC(=O)C(C)c1nc2cc(N3CCOCC3)c(F)cc2[nH]c1=O (stereo not given)
inactive: MDA-MB-435 > 100 µM | MCF7 > 100 µM | SK-MEL-2 > 100 µM | BT-549 > 100 µM | RXF 393 > 100 µM | HL-60 > 100 µM | UACC-257 > 100 µM | U-251 > 100 µM | NCI-H522 53.1 µM | SK-OV-3 > 100 µM | NCI-H460 > 100 µM | TK-10 > 100 µM | SF-268 > 100 µM | ACHN > 100 µM | RPMI-8226 > 100 µM | A549 > 100 µM | OVCAR-5 > 100 µM | SK-MEL-5 > 100 µM | CAKI-1 > 100 µM

O=P1(c2ccccc2)c2ccccc2-c2ccccc21
inactive: MDA-MB-435 > 100 µM | MCF7 > 100 µM | SK-MEL-2 > 100 µM | BT-549 65.2 µM | RXF 393 93.8 µM | HL-60 66.1 µM | UACC-257 > 100 µM | NCI-H522 > 100 µM | SK-OV-3 > 100 µM | TK-10 > 100 µM | SF-268 > 100 µM | RPMI-8226 74.1 µM | A549 > 100 µM | SK-MEL-5 44.4 µM | CAKI-1 81.8 µM

Cc1ccnc2[nH]c3ccccc3c(=O)c12
inactive: MDA-MB-435 19.6 µM | MCF7 21.8 µM | SK-MEL-2 25.2 µM | BT-549 30.1 µM | RXF 393 15.6 µM | HL-60 15.1 µM | UACC-257 39.4 µM | U-251 > 10 µM | NCI-H522 15.2 µM | SK-OV-3 43.5 µM | NCI-H460 19 µM | TK-10 10.1 µM | SF-268 18.9 µM | ACHN 20.5 µM | RPMI-8226 25.9 µM | OVCAR-5 23.8 µM | SK-MEL-5 14 µM | CAKI-1 8.41 µM

CCOC(=O)c1nc2cc(C(F)(F)F)ccc2nc1Oc1ccc(C#N)cc1
inactive: MDA-MB-435 > 100 µM | MCF7 > 100 µM | SK-MEL-2 > 100 µM | BT-549 > 100 µM | RXF 393 19.1 µM | HL-60 71.8 µM | UACC-257 > 100 µM | U-251 > 100 µM | NCI-H522 > 100 µM | NCI-H460 > 100 µM | TK-10 > 100 µM | SF-268 > 100 µM | ACHN > 100 µM | RPMI-8226 54.3 µM | A549 > 100 µM | OVCAR-5 > 100 µM | SK-MEL-5 92.5 µM | CAKI-1 > 100 µM
